The test system of test [1] is mouse IL-5 mRNA in primary LN cells. Briefly: Validation: mouse IL-5 mRNA by real-time PCR in LN cells of GA-immunized SJL/J mice (Example IV). The format is cell-based. Particulars: for IL-5 mRNA Fold Change: normalized to GAPDH; for induction of IL-5 mRNA: 20 μg/mL GA, 6 hours. Here is the method: (§1) Three experiments were conducted using one batch of GA (Mylan GMA). The primary LN cells were stimulated by incubation with 6 concentrations (0.3 to 20 μg/mL) of the GA for 6 hours at 37° C. Total RNA was isolated from LN cells stimulated with GA or controls. cDNA was synthesized from the RNA and the mRNA levels of seven mouse cytokines, IL-2, IL-4, IL-5, IL-10, IL-13, interferon (IFN)-γ and tumor necrosis factor (TNF)-α, were quantitatively measured by a real-time PCR method.
(§2) Female SJL/J mice at 8-9 weeks of age were immunized by injection into four footpads using a 1 mL syringe with a 27-G, ½-inch needle. Each mouse received a total injection volume of 0.1 mL of GMA emulsified in CFA (about 10 μL into each of the front footpads and 40 μL into each of the hind footpads). Animals were immunized on Day 0. After injection, animals were placed back in their cages and housed ≤6 animals per cage.
(§3) Immunized animals were sacrificed by cervical dislocation on Day 10 following immunization. […] After centrifugation at about 200×g for 10 minutes at 4° C., the cell pellet was re-suspended in 40 mL of DCCM-1 medium for cell counting. A Trypan blue exclusion method was used to determine the cell density of viable cells in the suspension. After cell counting, the LN cells were suspended in enriched DCCM-1 medium at density of 7.5×10^6 cells/mL. LN cells (0.12 mL) were plated into each well of 96-well tissue culture plates.
(§4) Dilutions of GA (Mylan GMA) were prepared using enriched DCCM-1 medium as the diluent. GA dilutions (0.12 mL) were added in the assigned wells of 96-well tissue culture plates. The same volume of LN cells (0.12 mL) isolated from immunized animals was added to the assigned wells. A positive control and a negative control were always performed in the same assay by treating LN cells with 2.5 μg/mL ConA and 10 μg/mL MBP, respectively. The LN cells with mock stimulation protocols (enriched DCCM-1 medium) were used to monitor the background mRNA level of a cytokine. The plates were incubated at 37° C. in a humidified 5% CO2 incubator for 6 hr.
(§5) At the end of incubation time, culture medium from stimulated cells was removed by aspiration and the cells were lysed using Qiagen or Promega lysis buffer. The lysate was transferred to an RNeasy Mini column (Qiagen) or wells of the SV 96 Binding Plate (Promega) for RNA isolation and cDNA synthesis. All tested samples were run in triplicate.
(§6) The SV 96 Total RNA Isolation System (Promega; Cat. No. Z3505) was used for total RNA isolation. Assay procedures were carried out according to each manufacturer's protocol. RNA samples were stored at −70° C. until use. […] The assay procedure was carried out according to the manufacturer's protocol.
(§7) The plate was centrifuged at 2000 rpm for 2 minutes at 4° C. to spin down the contents and eliminate air bubbles. Samples were prepared and run in a 96-well plate using a Life Technologies Real-Time PCR system (previously Applied Biosystems; Model No. 7500) according to the manufacturer's recommendation. The mix for the reference gene was prepared in the same way using the reference gene primer.
(§8) A relative quantitation method was used to analyze changes in mIL-2, mIL-4, mIL-5, mIL-10, mIL-13, mIFN-γ and TNF-α expression in GA treated samples relative to the untreated control (Enriched DCCM-1 treated) samples using the following program:
(§9) Levels of mouse cytokine amplicons were normalized to an internal probe level (GAPDH) from the same samples. The following equations were used to calculate the relative increase in response to GA stimulation compared to the control sample (Enriched DCCM1 sample): […]
On the technique in general: In qPCR the cycle at which signal appears reflects the starting amount.

In test [2] the test system is mouse IL-2 mRNA in primary LN cells. Nature of the test: Mouse IL-2 mRNA in LN cells of Copaxone-, GMA- or mannitol-immunized SJL/J mice stimulated with Copaxone and GMA lots, normalized to Actβ or GAPDH (Example V). The format is cell-based. The protocol: (§10) A real-time polymerase chain reaction method was used to measure the expression of cytokine mRNA in GA-stimulated LN cells from GA-immunized SJL/J mice. Normalization of expression with two different housekeeping genes, GAPDH and β-actin, was tested.
(§11) Each group consisted of six female SJL/J mice immunized by injection in all four footpads with a total dose of 250 μg of one lot of GA, or mannitol and no GA. Three Copaxone batches and three GMA batches were used to immunize the mice. CFA was included in both GA and mannitol immunizations. Ten days following immunization, LN cell samples isolated from the immunized mice were each stimulated with a concentration of a Copaxone lot and a GMA lot. A positive control of 2.5 μg/mL ConA treated LN cells and a negative control of 10 μg/mL MBP treated cells were included in each group.
(§12) Therefore, the Q-PCR analysis was repeated on the samples, measuring levels of IL-2, IL-4, IL-5, and IL-13, using both GAPDH and β-actin as reference gene.

For test [3], the system named is mouse IL-13 mRNA in primary LN cells. Nature of the test: Mouse IL-13 mRNA in LN cells of immunized SJL/J mice stimulated with Copaxone and GMA lots, normalized to Actβ or GAPDH (Example V). In kind it is cell-based. The conditions noted are these: for 1L-13 mRNA Fold Change: normalized to Actβ; for IL-13 mRNA Fold Change: normalized to GAPDH. Here is the method:
as §10, §11, §12

The test system of test [4] is IL-2 secreted by LN cells. Nature of the test: IL-2 secretion by GA-stimulated LN cells, MSD 9-plex ELISA (Example II). In kind it is cell-based, mouse. The conditions noted are these: for IL-2 secretion response ratio (treated cell medium to control DCCM1 medium): 21 hr. In general terms: An ELISA detects its analyte on a solid surface through an enzyme-linked reagent.

Test [5] deals with mouse IFN-γ mRNA in primary LN cells. Briefly: Validation: mouse IFN-γ mRNA by real-time PCR in LN cells of GA-immunized SJL/J mice (Example IV). The format is cell-based. The conditions noted are these: for IFN-γ mRNA Fold Change: normalized to GAPDH. The protocol:
as §1, §2, §3, §4, §5, §6, §7, §8, §9

For test [6], the system named is mouse IL-4 mRNA in primary LN cells. Nature of the test: Mouse IL-4 mRNA in LN cells of immunized SJL/J mice stimulated with Copaxone and GMA lots, normalized to Actβ or GAPDH (Example V). In kind it is cell-based. Here is the method:
as §10, §11, §12

Setting [7] is: Group 3 (mice immunized with GA-M2 Mylan GMA), 2.5 μg/mL, normalized to Actβ.
The mark [8] stands for this setting: Group 3 (mice immunized with GA-M2 Mylan GMA), 2.5 μg/mL, normalized to GAPDH.
Setting [9] is: Group 4 (mice immunized with GA-C2 Copaxone), 2.5 μg/mL, normalized to Actβ.
[10] abbreviates: Group 4 (mice immunized with GA-C2 Copaxone), 2.5 μg/mL, normalized to GAPDH.
Setting [11] is: BALB/cByJ, immunized GA Lower Limb.
Where [12] appears, read: C57BL10J, immunized GA Intraplantar.
Where [13] appears, read: C57BL10J, immunized GA Lower Limb.
[14] abbreviates: SJL/J, different concentrations of GA vs unstimulated LN cells.
[15] abbreviates: Copaxone: C/A, GMA: B/D, 5 μg/mL.
Setting [16] is: Group 3 (mice immunized with GA-M2 Mylan GMA), 10 μg/mL, normalized to Actβ.
Setting [17] is: Group 3 (mice immunized with GA-M2 Mylan GMA), 10 μg/mL, normalized to GAPDH.
The mark [18] stands for this setting: Group 4 (mice immunized with GA-C2 Copaxone), 10 μg/mL, normalized to Actβ.
Setting [19] is: Group 4 (mice immunized with GA-C2 Copaxone), 10 μg/mL, normalized to GAPDH.

“Concanavalin A [ConA, reference compound]”: the “IL-5 mRNA Fold Change” value was 22.4 fold in test [1] (Experiment 1, 2.5 μg/mL); 11.3 fold in test [1] (Experiment 2, 2.5 μg/mL); 31.0 fold in test [1] (Experiment 3, 2.5 μg/mL). Moreover, the “IL-2 mRNA Fold Change” value in test [2] (setting [7]) is recorded as 123.4 fold; in test [2] (setting [8]), 149.4 fold; in test [2] (setting [9]), 105.0 fold; in test [2] (setting [10]), 84.8 fold. Also, the “1L-13 mRNA Fold Change” value in test [3] (Group ID 3, 2.5 μg/mL) was determined as 15.6 fold; in test [3] (Group ID 4, 2.5 μg/mL), 20.4 fold. Besides, the “IL-13 mRNA Fold Change” value in test [3] (Group ID 3, 2.5 μg/mL) is 27.4 fold; in test [3] (Group ID 4, 2.5 μg/mL), 34.8 fold. Further, the “IL-2 secretion response ratio (treated cell medium to control DCCM1 medium)” value is reported as 283.65 in test [4] (setting [11]); 40.09 in test [4] (setting [12]); 31.11 in test [4] (setting [13]); 19.64 in test [4] (CD-1, immunized GA Lower Limb). Besides, the “IFN-γ mRNA Fold Change” value was 1.9 fold in test [5] (Experiment 1, 2.5 μg/mL); 1.6 fold in test [5] (Experiment 2, 2.5 μg/mL); 2.6 fold in test [5] (Experiment 3, 2.5 μg/mL). Further, the “IL-4 mRNA Fold Change” value in test [6] (setting [7]) stood at 43.6 fold; in test [6] (setting [8]) it was 87.9 fold; in test [6] (setting [9]), 48.3 fold; in test [6] (setting [10]), 84.8 fold.
As to “L-glutamic acid polymer with L-alanine, L-lysine and L-tyrosine, acetate (salt) [GA]”, the “induction of IL-5 mRNA” value came out at 5.2 fold in test [1] (SJL/J, Exp 1); 5.3 fold in test [1] (SJL/J, Exp 2); 15.2 fold in test [1] (SJL/J, Exp 3). Besides, the “induction of IL-5 mRNA (in words)” value in test [1] (setting [14]) is reported as “moderate induction”. Moreover, the IL-2 cross-potency in test [2] (setting [15]) is 108%. The IL-13 cross-potency in test [3] (setting [15]) is reported as 74.8%. Also, in test [4] (LN cells from each of the three mouse strains), the “IL-2 secretion, dose response to GA (in words)” value is on record as “dose-dependent manner”. For the same molecule, in test [5] (setting [14]), the “induction of IFN-γ mRNA (in words)” value is reported as “weak induction”. The “induction of IFN-γ mRNA” value in test [5] (SJL/J, stimulation with 2.5 to 10 μg/mL GA, three experiments) is ≥ 2 fold. Also, in test [6] (setting [15]), the IL-4 cross-potency is listed as 103%.

B1: MBP: myelin basic protein, a negative control (protein, UniProt P02686 1-304, looked up)
Myelin basic protein: MGNHAGKRELNAEKASTNSETNRGESEKKRNLGELSRTTSEDNEVFGEADANQNNGTSSQDTAVTDSKRTADPKNAWQDAHPADPGSRPHLIRLFSRDAPGREDNTFKDRPSESDELQTIQEDSAATSESLDVMASQKRPSQRHGSKYLATASTMDHARHGFLPRHRDTGILDSIGRFFGGDRGAPKRGSGKDSHHPARTAHYGSLPQKSHGRTQDENPVVHFFKNIVTPRTPPPSQGKGRGLSLSRFSWGAEGQRPGFGYGGRASDYKSAHKGFKGVDAQGTLSKIFKLGGRDSRSGSPMARR
Turning to B1, the “IL-5 mRNA Fold Change” value in test [1] (Experiment 1, 10 μg/mL) is reported as 0.8 fold; in test [1] (Experiment 2, 10 μg/mL), 0.8 fold; in test [1] (Experiment 3, 10 μg/mL), 2.6 fold. Also, the “IL-2 mRNA Fold Change” value is recorded as 1.2 fold in test [2] (setting [16]), 0.7 fold in test [2] (setting [17]), 0.8 fold in test [2] (setting [18]) and 1.3 fold in test [2] (setting [19]). Further, the “1L-13 mRNA Fold Change” value in test [3] (Group ID 3, 10 μg/mL) is on record as 0.7 fold; in test [3] (Group ID 4, 10 μg/mL), 1.0 fold. The “IL-13 mRNA Fold Change” value in test [3] (Group ID 3, 10 μg/mL) came out at 0.5 fold; in test [3] (Group ID 4, 10 μg/mL), 1.2 fold. For the same molecule, the “IL-2 secretion response ratio (treated cell medium to control DCCM1 medium)” value in test [4] (setting [11]) worked out at 1.13; in test [4] (setting [12]), 1.18; in test [4] (setting [13]), 1.30; in test [4] (CD-1, immunized GA Lower Limb), 1.29. For the same molecule, the “IFN-γ mRNA Fold Change” value in test [5] (Experiment 1, 10 μg/mL) was determined as 0.8 fold; in test [5] (Experiment 2, 10 μg/mL) it was 1.3 fold; in test [5] (Experiment 3, 10 μg/mL), 1.1 fold. Moreover, the “IFN-γ mRNA expression level in response to MBP treatment” value in test [5] (SJL/J, MBP 10 μg/mL, all PCR runs) was ≤ 2 fold. In addition, the “IL-4 mRNA Fold Change” value in test [6] (setting [16]) is 0.8 fold; in test [6] (setting [17]), 0.7 fold; in test [6] (setting [18]), 2.4 fold; in test [6] (setting [19]) it was 1.3 fold.
